What was measured:
Histone deacetylase 9 = Histone deacetylase 9 (Homo sapiens, UniProt Q9UKV0); experiment: Inhibition of human HDAC9 after 15 mins by trypsin-coupled fluorescence assay
Histone deacetylase 11 = molecular target: T1, Histone deacetylase 11 (Homo sapiens, UniProt Q96DB2); experiment: Inhibition of human HDAC11 after 15 mins by trypsin-coupled fluorescence assay
T1 sequence (Q96DB2 whole entry): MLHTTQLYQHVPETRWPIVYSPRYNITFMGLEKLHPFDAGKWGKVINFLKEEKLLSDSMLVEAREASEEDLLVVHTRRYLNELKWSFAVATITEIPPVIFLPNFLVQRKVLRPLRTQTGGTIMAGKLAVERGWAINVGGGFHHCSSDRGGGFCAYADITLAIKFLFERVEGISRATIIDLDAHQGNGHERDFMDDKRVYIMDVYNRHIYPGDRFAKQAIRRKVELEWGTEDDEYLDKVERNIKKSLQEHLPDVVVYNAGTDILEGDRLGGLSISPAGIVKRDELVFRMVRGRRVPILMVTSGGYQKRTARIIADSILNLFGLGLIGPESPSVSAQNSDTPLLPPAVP

Histone deacetylase 7 = molecular target: T2, Histone deacetylase 7 (Homo sapiens, UniProt Q8WUI4); experiment: Inhibition of human HDAC7 after 15 mins by trypsin-coupled fluorescence assay
T2 sequence (Q8WUI4 whole entry): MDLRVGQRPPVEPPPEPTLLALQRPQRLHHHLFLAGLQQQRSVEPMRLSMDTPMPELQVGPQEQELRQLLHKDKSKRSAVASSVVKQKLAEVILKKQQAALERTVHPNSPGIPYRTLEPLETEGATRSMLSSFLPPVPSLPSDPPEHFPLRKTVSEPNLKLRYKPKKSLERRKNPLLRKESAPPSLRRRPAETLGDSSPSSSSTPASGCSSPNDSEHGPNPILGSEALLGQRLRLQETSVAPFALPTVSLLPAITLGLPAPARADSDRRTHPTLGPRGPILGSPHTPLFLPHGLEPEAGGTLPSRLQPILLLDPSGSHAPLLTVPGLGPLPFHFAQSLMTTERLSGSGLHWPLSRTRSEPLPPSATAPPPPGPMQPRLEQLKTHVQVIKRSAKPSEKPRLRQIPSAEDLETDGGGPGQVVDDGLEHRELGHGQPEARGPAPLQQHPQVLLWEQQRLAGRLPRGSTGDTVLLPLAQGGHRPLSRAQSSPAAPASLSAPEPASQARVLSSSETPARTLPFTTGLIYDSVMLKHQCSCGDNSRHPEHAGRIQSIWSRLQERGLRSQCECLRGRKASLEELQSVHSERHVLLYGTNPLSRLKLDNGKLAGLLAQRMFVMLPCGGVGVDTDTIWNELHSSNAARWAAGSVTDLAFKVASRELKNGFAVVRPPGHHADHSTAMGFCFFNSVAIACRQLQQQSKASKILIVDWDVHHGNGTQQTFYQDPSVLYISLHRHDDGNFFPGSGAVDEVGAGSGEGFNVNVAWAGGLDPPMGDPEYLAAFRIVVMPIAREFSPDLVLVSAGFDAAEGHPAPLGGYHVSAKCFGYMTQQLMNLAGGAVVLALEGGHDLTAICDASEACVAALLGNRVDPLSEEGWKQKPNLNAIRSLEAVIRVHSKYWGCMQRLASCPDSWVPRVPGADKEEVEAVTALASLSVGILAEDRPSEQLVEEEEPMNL

Histone deacetylase 1 = Histone deacetylase 1 (Homo sapiens, UniProt Q13547); experiment: Inhibition of human HDAC1 after 15 mins by trypsin-coupled fluorescence assay
Chain of Histone deacetylase 1 (Q13547 whole entry): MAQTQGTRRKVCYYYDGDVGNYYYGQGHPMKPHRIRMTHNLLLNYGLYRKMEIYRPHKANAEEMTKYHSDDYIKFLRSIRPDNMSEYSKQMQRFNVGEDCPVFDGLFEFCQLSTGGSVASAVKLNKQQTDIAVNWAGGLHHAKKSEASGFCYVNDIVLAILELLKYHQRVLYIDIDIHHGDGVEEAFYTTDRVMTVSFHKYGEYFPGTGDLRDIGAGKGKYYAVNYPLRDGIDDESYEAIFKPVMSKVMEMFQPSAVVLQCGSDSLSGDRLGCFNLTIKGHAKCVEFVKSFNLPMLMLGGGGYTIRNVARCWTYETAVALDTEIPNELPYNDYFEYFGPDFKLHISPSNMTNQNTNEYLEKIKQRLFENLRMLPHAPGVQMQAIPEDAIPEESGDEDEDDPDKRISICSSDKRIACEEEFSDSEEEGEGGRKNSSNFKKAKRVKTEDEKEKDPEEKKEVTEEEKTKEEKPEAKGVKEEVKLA

Homo sapiens [1] = species: Homo sapiens; experiment: Selectivity index, ratio of IC50 for human HDAC8 to IC50 for human HDAC6
Homo sapiens [2] = species: Homo sapiens; experiment: Selectivity index, ratio of IC50 for human HDAC4 to IC50 for human HDAC6
Histone deacetylase 4 = Histone deacetylase 4 (Homo sapiens, UniProt P56524); experiment: Inhibition of human HDAC4 after 15 mins by trypsin-coupled fluorescence assay
Chain of Histone deacetylase 4 (P56524 whole entry): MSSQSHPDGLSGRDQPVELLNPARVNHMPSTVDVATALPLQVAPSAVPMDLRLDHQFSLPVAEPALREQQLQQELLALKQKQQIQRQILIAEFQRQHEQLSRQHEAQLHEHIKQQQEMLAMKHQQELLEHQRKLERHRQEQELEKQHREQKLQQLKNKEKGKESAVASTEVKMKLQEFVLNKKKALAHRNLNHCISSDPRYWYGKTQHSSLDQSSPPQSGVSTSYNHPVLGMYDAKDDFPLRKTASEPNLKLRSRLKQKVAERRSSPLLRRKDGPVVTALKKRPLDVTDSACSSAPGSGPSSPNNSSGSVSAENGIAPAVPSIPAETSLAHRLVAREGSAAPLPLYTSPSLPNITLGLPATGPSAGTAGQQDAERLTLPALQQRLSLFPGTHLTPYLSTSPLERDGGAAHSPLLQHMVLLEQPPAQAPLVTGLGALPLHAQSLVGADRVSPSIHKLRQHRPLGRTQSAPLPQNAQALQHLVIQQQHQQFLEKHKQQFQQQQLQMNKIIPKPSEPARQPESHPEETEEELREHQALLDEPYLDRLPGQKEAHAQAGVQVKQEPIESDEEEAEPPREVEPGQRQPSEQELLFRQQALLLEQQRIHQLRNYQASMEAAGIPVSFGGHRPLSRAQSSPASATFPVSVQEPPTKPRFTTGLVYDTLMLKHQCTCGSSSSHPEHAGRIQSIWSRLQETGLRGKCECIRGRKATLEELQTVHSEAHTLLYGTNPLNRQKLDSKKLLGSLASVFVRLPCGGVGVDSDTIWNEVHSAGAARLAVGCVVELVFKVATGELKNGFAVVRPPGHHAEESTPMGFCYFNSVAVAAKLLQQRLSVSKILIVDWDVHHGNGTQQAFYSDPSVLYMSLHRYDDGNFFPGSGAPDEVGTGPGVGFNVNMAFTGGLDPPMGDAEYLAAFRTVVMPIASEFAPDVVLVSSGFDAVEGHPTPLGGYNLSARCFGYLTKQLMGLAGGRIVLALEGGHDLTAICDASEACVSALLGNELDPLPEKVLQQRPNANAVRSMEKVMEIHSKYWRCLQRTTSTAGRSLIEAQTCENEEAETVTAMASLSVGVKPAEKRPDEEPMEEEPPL

Histone deacetylase 5 = Histone deacetylase 5 (Homo sapiens, UniProt Q9UQL6); experiment: Inhibition of human HDAC5 after 15 mins by trypsin-coupled fluorescence assay
Chain of Histone deacetylase 5 (Q9UQL6 whole entry): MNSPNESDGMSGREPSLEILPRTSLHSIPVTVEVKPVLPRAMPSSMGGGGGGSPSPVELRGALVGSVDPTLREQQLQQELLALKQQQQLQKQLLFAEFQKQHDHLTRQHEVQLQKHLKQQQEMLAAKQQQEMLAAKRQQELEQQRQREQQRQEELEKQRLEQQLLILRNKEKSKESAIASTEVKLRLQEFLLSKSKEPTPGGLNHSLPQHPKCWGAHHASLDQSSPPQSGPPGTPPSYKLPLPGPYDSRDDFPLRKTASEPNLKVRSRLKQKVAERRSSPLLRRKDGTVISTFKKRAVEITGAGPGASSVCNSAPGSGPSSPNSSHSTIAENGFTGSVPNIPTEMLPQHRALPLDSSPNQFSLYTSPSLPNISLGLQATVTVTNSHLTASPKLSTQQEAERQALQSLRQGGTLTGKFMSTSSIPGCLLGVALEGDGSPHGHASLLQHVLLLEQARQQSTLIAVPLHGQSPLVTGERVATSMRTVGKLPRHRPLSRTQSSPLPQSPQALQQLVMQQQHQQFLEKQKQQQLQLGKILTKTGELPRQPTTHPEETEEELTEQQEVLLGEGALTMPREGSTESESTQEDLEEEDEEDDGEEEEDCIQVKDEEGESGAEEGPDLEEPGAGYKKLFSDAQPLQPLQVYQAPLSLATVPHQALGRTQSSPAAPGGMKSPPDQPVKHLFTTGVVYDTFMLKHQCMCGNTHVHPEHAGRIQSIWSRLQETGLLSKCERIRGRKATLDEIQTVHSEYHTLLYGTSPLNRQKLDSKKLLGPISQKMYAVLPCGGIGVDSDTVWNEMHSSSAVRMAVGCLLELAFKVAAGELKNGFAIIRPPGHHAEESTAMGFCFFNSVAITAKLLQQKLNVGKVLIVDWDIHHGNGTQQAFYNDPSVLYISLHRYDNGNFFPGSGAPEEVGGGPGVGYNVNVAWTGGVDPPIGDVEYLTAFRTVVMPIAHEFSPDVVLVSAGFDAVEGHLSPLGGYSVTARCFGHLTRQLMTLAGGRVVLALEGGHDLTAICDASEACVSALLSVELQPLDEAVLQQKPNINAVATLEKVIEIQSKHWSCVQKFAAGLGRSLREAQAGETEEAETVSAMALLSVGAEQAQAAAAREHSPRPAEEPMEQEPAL

Chain of Histone deacetylase 9 (Q9UKV0 whole entry): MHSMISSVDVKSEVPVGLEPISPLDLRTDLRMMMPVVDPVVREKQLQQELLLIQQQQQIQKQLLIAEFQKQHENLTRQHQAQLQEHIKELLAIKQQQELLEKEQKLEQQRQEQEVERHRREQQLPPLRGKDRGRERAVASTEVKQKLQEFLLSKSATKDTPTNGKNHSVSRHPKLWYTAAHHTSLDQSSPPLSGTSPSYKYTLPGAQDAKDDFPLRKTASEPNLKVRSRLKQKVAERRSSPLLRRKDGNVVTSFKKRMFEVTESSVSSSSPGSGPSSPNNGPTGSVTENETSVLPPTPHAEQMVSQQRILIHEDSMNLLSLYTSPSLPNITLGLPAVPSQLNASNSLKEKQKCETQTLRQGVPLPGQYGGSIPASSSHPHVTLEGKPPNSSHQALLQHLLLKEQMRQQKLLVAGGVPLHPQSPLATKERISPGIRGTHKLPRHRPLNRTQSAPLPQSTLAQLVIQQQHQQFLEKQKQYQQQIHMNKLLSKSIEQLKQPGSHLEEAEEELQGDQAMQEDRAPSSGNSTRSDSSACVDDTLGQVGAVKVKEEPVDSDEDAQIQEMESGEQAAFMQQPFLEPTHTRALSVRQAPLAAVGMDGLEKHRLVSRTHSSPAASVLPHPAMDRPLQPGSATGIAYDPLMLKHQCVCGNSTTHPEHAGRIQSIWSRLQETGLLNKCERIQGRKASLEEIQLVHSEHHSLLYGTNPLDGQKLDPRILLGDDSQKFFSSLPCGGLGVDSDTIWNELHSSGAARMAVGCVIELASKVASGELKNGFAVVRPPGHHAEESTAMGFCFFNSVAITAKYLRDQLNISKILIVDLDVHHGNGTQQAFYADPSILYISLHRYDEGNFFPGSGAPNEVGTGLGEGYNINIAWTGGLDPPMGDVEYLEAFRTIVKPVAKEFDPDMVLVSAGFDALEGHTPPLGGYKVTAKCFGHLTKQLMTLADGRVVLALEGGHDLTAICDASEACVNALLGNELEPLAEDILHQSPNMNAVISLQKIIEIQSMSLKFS

`O=C(NO)c1ccc(CN(CCO)C(=O)Cc2ccccc2)cc1` gave an IC50 (Histone deacetylase 9) of 5.3 µM, an IC50 (Histone deacetylase 11) of 3.7 µM and an IC50 (Histone deacetylase 7) of 1.1 µM. For the same compound, the IC50 (Histone deacetylase 1) was 0.8 µM, the Ratio IC50 (Homo sapiens [1]) was 15 to 400 and the Ratio IC50 (Homo sapiens [2]) was 15 to 400. The IC50 (Histone deacetylase 4) was 2.2 µM and the IC50 (Histone deacetylase 5) was 9.5 µM.

— ChEMBL document CHEMBL4033665, “Synthesis and applications of benzohydroxamic acid-based histone deacetylase inhibitors” (Eur J Med Chem, 2017)
